Results reported in US9034876B2, “Treatment of chronic inflammation with a 1,2,4-triazolo [1,5a] pyridine derivative” (Cephalon, Inc., priority 2010, dated 2015).
Like-named read-outs stand apart in the source and are kept apart here.

Experiments:
[1] = Compound quantification (PK) in plasma, paw and spleen of CAIA mice; format: in vivo; conditions: DBA/1, mouse, oral, day 20, mean±SEM, N=3; for concentration at 2 h: 2 hrs post-administration; for concentration at 6 h: 6 hrs post-administration
Procedure: FIG. 2B: Depicts the results of a PK (pharmacokinetic) study of Compound A, 55 mg/kg, 30 mg/kg and 10 mg/kg, p.o., s.i.d. (once daily), in the plasma, paw and spleen of treated mice, N=3 mice per group tested. The data shown in the figure represents the mean±SEM (standard error of the mean).
While the level of Compound A in the target tissue, i.e., the paw, was relatively low, the levels of Compound A were relatively constant between the two time points for the 55 mg/kg treatment group. […] The data (mean±SEM, N=3) represented in FIG. 2B is tabulated below:
Plasma and protein extraction from paw and spleen samples were submitted for quantitative analysis to determine the respective compound concentrations. Blood samples were collected into heparinized tubes and placed on wet ice until centrifuged (16,000×g, 5 minutes) to separate the plasma. Supernatant was collected and stored at −20° C. pending analysis. At the time of analysis, two volumes of cold acetonitrile containing an internal standard (alprenolol) were added to each sample which were then vortexed and centrifuged. The supernatants were removed, placed into an auto-sampler vial and the amount of compound present in the samples was analyzed by liquid chromatograph/mass spectrometry (LC-MS-MS). The concentration of compound in the samples was quantified against a mouse plasma standard curve made via serial dilution in a concentration range from 5 to 20,000 ng/mL. Samples containing concentrations greater than 10% above the top of the standard curve were diluted 1:10 with acetonitrile. The limit of detection for plasma, paw and spleen were <10 ng/ml.

serum and paw cytokines = test: CIA model, serum and paw cytokines (Luminex bead assay); format: in vivo, female DBA/1 mice
Procedure: Female DBA/1 mice were injected with purified collagen type II in CFA i.d. (intradermal), then boosted with collagen type II in IFA, s.c., (subcutaneous) on day 21 followed by a day 28 LPS injection i.p. to induce arthritis (CIA). Mice that scored a ‘1’ or better for each paw were considered arthritic and entered into the study. Treatments started after 7-10 days of arthritis induction. Compound A was provided orally, b.i.d., for all doses tested; Dex was administered i.p. at 1.5 mg/kg, three times a week; and vehicle (PEG400+1% DMSO) was provided orally, b.i.d.
FIGS. 4C-1 through 4C-4: Depict concentrations of various serum cytokines (IL-12, IL-2, IL-10 and TNFα) in arthritic paws in each treatment group.
Frozen plasma at −80° C. was thawed on ice, vortexed, then centrifuged for 10 minutes to remove debris and aggregates. A total of 25-50 μl of serum was used for Luminex® assays following the manufacturer's instruction. Ten different mouse cytokines were measured using the mouse cytokine 10-plex bead kit (Invitrogen, Carlsbad, Calif.). […]
A more detailed description of this method can be found described elsewhere (Lu et al, 2010, submitted for publication). […] Protein concentration was measured using a BCA protein assay (Pierce, Rockford, Ill.) and adjusted to 3 mg/ml. […]

human JAK2 = human JAK2 (Homo sapiens, UniProt O60674); conditions: read-out: IC50, JAK2 kinase, isolated human enzyme; average±standard deviation of at least 4 determinations; 0.2 μM ATP
Sequence of human JAK2 (O60674 whole entry): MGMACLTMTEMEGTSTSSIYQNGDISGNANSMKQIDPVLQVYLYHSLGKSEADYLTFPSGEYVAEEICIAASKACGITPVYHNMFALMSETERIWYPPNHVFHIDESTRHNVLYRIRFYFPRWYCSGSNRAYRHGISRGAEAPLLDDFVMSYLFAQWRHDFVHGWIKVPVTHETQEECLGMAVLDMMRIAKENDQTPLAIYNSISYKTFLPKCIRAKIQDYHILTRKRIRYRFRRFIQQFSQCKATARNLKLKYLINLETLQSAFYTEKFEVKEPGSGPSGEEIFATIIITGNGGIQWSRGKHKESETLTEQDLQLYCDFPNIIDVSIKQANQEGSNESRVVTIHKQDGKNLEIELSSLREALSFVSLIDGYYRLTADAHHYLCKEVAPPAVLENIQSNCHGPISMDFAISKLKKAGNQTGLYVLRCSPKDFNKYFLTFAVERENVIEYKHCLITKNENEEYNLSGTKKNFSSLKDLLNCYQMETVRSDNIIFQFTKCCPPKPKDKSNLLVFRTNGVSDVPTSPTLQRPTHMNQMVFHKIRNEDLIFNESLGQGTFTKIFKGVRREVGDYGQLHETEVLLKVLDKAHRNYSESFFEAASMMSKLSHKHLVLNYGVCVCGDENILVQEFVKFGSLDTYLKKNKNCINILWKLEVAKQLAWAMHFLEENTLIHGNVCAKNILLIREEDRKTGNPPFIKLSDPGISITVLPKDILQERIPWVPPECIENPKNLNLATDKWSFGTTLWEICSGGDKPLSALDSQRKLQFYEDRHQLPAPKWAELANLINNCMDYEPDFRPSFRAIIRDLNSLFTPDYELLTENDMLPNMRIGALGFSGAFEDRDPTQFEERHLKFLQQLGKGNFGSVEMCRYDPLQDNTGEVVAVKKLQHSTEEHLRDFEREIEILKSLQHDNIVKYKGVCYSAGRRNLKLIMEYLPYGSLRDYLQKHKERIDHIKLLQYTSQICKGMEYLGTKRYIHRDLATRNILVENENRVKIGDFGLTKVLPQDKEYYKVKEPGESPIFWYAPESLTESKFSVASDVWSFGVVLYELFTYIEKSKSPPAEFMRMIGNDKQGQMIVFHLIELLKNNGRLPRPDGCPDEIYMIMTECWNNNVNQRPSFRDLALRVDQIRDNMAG
Procedure: IC50 values are reported as the average±standard deviation of at least 4 independent determinations.
The kinase activity of baculovirus-expressed human JAK kinases (JAK1, JAK2, JAK3 or TYK2) was measured using the time-resolved fluorescence (TRF) detection system as described elsewhere [17]. Each 96-well Costar high binding plate (Corning, Corning, N.Y.) was coated with 100 μl/well of 10 μg/ml neutravidin (Pierce Biotechnology, Rockford, Ill.) in TBS at 37° C. for 2 h, followed by 100 μl/well of 1 μg/ml 15-mer peptide substrate (biotinyl-amino-hexanoyl-[sequence]-amide, Infinity Biotech Research and Resource, Aston, Pa.) at 37° C. for 1 h. The kinase assay mixture (total volume=100 μl/well) consisting of 20 mM HEPES (pH 7.2), ATP (Km level for each kinase), 1 mM MnCl2, 0.1% BSA, and test Compound (diluted in DMSO; 2.5% DMSO final in assay) was added to the assay plate. The concentrations of ATP used were as follows: 0.2 μM ATP for JAK1, JAK2 and TYK2; 0.1 μM ATP for JAK3. Enzyme was added and the reaction was allowed to proceed for 20 min at RT. […] Plates were agitated for 10 min and the fluorescence of the resulting solution measured using the PerkinElmer EnVision® 2102 or 2104 multi-label plate reader. IC50 values were determined using the 4-parameter logistic model in XLFit® 4 (IDBS, Ltd., Guildford, UK).

[2] = paw, 10 mg/kg p.o., read-out: concentration in paw
[3] = paw, 30 mg/kg p.o., read-out: concentration in paw
[4] = paw, 55 mg/kg p.o., read-out: concentration in paw
[5] = plasma, 10 mg/kg p.o., read-out: concentration in plasma
[6] = plasma, 30 mg/kg p.o., read-out: concentration in plasma
[7] = plasma, 55 mg/kg p.o., read-out: concentration in plasma
[8] = spleen, 10 mg/kg p.o., read-out: concentration in spleen
[9] = spleen, 30 mg/kg p.o., read-out: concentration in spleen
[10] = spleen, 55 mg/kg p.o., read-out: concentration in spleen

concentration at 2 h [1, 2]: 214 ± 12.4 ng/mL | concentration at 6 h [1, 2]: 172 ± 48.7 ng/mL | concentration at 2 h [1, 3]: 508 ± 213 ng/mL | concentration at 6 h [1, 3]: 376 ± 84.7 ng/mL | concentration at 2 h [1, 4]: 660 ± 81.1 ng/mL | concentration at 6 h [1, 4]: 472 ± 74.3 ng/mL | concentration at 2 h [1, 5]: 1160 ± 48.1 ng/mL | concentration at 6 h [1, 5]: 433 ± 56.7 ng/mL | concentration at 2 h [1, 6]: 2040 ± 693 ng/mL | concentration at 6 h [1, 6]: 1310 ± 258 ng/mL | concentration at 2 h [1, 7]: 3160 ± 456 ng/mL | concentration at 6 h [1, 7]: 1480 ± 138 ng/mL | concentration at 2 h [1, 8]: 673 ± 102 ng/mL | concentration at 6 h [1, 8]: 273 ± 50.4 ng/mL | concentration at 2 h [1, 9]: 1330 ± 113 ng/mL | concentration at 6 h [1, 9]: 1170 ± 395 ng/mL | concentration at 2 h [1, 10]: 3900 ± 427 ng/mL | concentration at 6 h [1, 10]: 2350 ± 433 ng/mL | IC50 (human JAK2): 1.8 ± 0.6 nM
SMILES: CN1CCN(c2cccc(Nc3nc4c(-c5ccc(S(C)(=O)=O)cc5)cccn4n3)c2)CC1 [Compound A, [8-(4-Methanesulfonyl-phenyl)-[1,2,4]triazolo[1,5-a]pyridin-2-yl]-[3-(4-methyl-piperazin-1-yl)-phenyl]-amine]
serum and paw cytokines (IL-12, IL-2, IL-10, TNFα, IL-4) and spleen IL-12 (serum and paw cytokines; all three doses): decrease in several serum and paw cytokines | serum IL-12 level (serum and paw cytokines; all three doses (30, 55, 100 mg/kg)): significantly decrease the level of IL-12 comparable to that observed with Dex
